Drawing on patent US10131679B2, “Substituted dihydropyrrolopyrazole compound” (UBE INDUSTRIES, LTD., priority 2014, dated 2018), this text covers Ki and IC50 for eight compounds.

Where a name gives a salt, the structure may show the parent alone.

The target in one experiment is T1, CDK2 (Homo sapiens, UniProt P24941).
T1 construct: purchased Invitrogen Corp. PV3267
In words: CDK2 enzyme inhibition test. Format: biochemical. The note with it: Ki=IC50/(1+S/Km); 33P bound to MBP, [γ-33P]ATP, 30° C. for 20 minutes; read-out: Ki value of CDK2 inhibitory activity. The procedure: CDK2 Enzyme Inhibition Test
The preparation of a buffer solution was performed by mixing a HEPES buffer solution (pH 7.4), DTT, Triton X-100, and MgCl2. A 500 μM [γ-^33P]ATP solution was used by diluting a 10 mM ATP solution and a commercially available [γ-^33P]ATP solution (manufactured by PerkinElmer, Inc., Code No. NEG-302H) with the buffer solution. A CDK2 solution was used by diluting commercially available CDK2 (manufactured by Invitrogen Corp., Catalog No. PV3267) with the buffer solution. A substrate solution was used by diluting MBP with the buffer solution. As for the preparation of a reaction solution, the buffer solution, the 500 μM [γ-^33P]ATP solution, the CDK2 solution, and the substrate solution were mixed at 4° C. to obtain a reaction solution.
(§1) CDK2 enzyme reaction was performed by adding 5 μL of a test compound solution prepared with 10% DMSO/90% injectable distilled water, and 45 μL of the reaction solution in a 1.5 mL microtube at 4° C. and reacting in the microtube at 30° C. for 20 minutes in a water bath incubator. After the reaction, a 10% aqueous TCA solution was added to each microtube while cooled to 4° C., and mixed to terminate the reaction. The resultant was left standing at 4° C. for 10 minutes and then centrifuged in a centrifuge, and the supernatant was discarded. Next, a 2% aqueous TCA solution was added, mixed thereto, and then centrifuged in a centrifuge, and the supernatant was discarded. This washing operation was performed twice. After the washing, precipitates were dissolved in a 1 N aqueous NaOH solution, and the radioactivity was measured with a liquid scintillation counter.
The calculation of the inhibitory activity of the test compound against CDK2 was performed as a test compound concentration inhibiting 50% of the amount of ^33P bound to MBP (IC50 value) by using EXSUS (version 8.0.0 or version 8.0.1, manufactured by CAC Exicare Corp.).
(§2) The calculation of a Ki value was performed according to the following calculation expression. S means the concentration of ATP contained in the reaction solution, and Km means a Michaelis-Menten constant. Ki=IC50/(1+S/Km)

In a further experiment the target is T2, CDK7 (Homo sapiens, UniProt P50613).
T2 construct: purchased Carna Biosciences, Inc. 04-108
Briefly: CDK7 enzyme inhibition test. The format is biochemical. The note with it: Ki=IC50/(1+S/Km); 33P bound to MBP, [γ-33P]ATP, 30° C. for 20 minutes; read-out: Ki value of CDK7 inhibitory activity. The procedure:
CDK7 Enzyme Inhibition Test
The preparation of a buffer solution was performed by mixing a N-2-hydroxyethylpiperazine-N′-2-ethanesulfonic acid buffer solution (HEPES buffer solution) (pH 7.4), dithiothreitol (DTT), Triton X-100, and magnesium chloride (MgCl2). A 500 μM [γ-^33P]ATP solution was used by diluting a 10 mM ATP solution and a commercially available [γ-^33P]ATP solution (manufactured by PerkinElmer, Inc., Code No. NEG-302H) with the buffer solution. A CDK7 solution was used by diluting commercially available CDK7 (manufactured by Carna Biosciences, Inc., Catalog No. 04-108) with the buffer solution. A substrate solution was used by diluting myelin basic protein (MBP) with the buffer solution. As for the preparation of a reaction solution, the buffer solution, the 500 μM [γ-^33P]ATP solution, the CDK7 solution, and the substrate solution were mixed at 4° C. to obtain a reaction solution.
CDK7 enzyme reaction was performed by adding 5 μL of a test compound solution prepared with 10% dimethyl sulfoxide (DMSO)/90% injectable distilled water, and 45 μL of the reaction solution to a 1.5 mL microtube at 4° C. and reacting in the microtube at 30° C. for 20 minutes in a water bath incubator. After the reaction, a 10% aqueous trichloroacetic acid (TCA) solution was added to each microtube while cooled to 4° C., and mixed to terminate the reaction. The resultant was left standing at 4° C. for 10 minutes and then centrifuged in a centrifuge, and the supernatant was discarded. Next, a 2% aqueous TCA solution was added, mixed, and then centrifuged in a centrifuge, and the supernatant was discarded. This washing operation was performed twice. After the washing, precipitates were dissolved in a 1 N aqueous sodium hydroxide (NaOH) solution, and the energy quantity (radioactivity) of the reaction product was measured with a liquid scintillation counter.
The calculation of the inhibitory activity of the test compound against CDK7 was performed as a test compound concentration inhibiting 50% of the amount of ^33P bound to MBP (IC50 value) by using EXSUS (version 8.0.0 or version 8.0.1, manufactured by CAC Exicare Corp.).
as §2

In the next experiment the target is T3, PAK4 (Homo sapiens, UniProt O96013).
T3 construct: purchased Invitrogen Corp. PV4212
In words: PAK4 enzyme inhibition test. The format is biochemical. To be noted: Ki=IC50/(1+S/Km); 33P bound to MBP, [γ-33P]ATP, 30° C. for 20 minutes; read-out: Ki value of PAK4 inhibitory activity. The procedure: PAK4 Enzyme Inhibition Test
The preparation of a buffer solution was performed by mixing a trishydroxyaminomethane buffer solution (Tris buffer solution) (pH 7.5), DTT, Triton X-100, MgCl2, ethylene glycol bis(β-aminoethyl ether)-N,N,N′,N′-tetraacetic acid (EGTA), (3-glycerol phosphate, and sodium orthovanadate(V). A 40 μM [γ-^33P]ATP solution was used by diluting a 10 mM ATP solution and a commercially available [γ-^33P]ATP solution (manufactured by PerkinElmer, Inc., Code No. NEG-302H) with the buffer solution. A PAK4 solution was used by diluting commercially available PAK4 (manufactured by Invitrogen Corp., Catalog No. PV4212) with the buffer solution. A substrate solution was used by diluting MBP with the buffer solution. As for the preparation of a reaction solution, the buffer solution, the 40 μM [γ-^33P]ATP solution, the PAK4 solution, and the substrate solution were mixed at 4° C. to obtain a reaction solution.
as §1, with “PAK4” for “CDK2”, “mixed,” for “mixed thereto,”
The calculation of the inhibitory activity of the test compound against PAK4 was performed as a test compound concentration inhibiting 50% of the amount of ^33P bound to MBP (IC50 value) by using EXSUS (version 8.0.0 or version 8.0.1, manufactured by CAC Exicare Corp.).
as §2

Experiment [1] deals with human large intestine cancer cell line (HCT-116). Briefly: Human large intestine cancer (HCT-116) cell growth inhibition test. The format is cell-based. To be noted: 72 h, HCT-116, culture for 3 days, sulforhodamine B absorbance. The procedure:
Human Large Intestine Cancer (HCT-116) Cell Growth Inhibition Test
The measurement of a human large intestine cancer cell growth inhibitory effect was carried out by modifying the method of Simak et al. (Cancer Research, 69, 6208 (2009)).
A human large intestine cancer cell line (HCT-116) (manufactured by DS Pharma Biomedical Co., Ltd., Cat. No. EC91091005) was cultured in McCoy's 5a (manufactured by GIBCO/Thermo Fisher Scientific, Inc., REF. 16600-082) medium containing 10% FBS (manufactured by GIBCO/Thermo Fisher Scientific, Inc., REF. 10082-147) and 1% penicillin/streptomycin/amphotericin B (manufactured by GIBCO/Thermo Fisher Scientific, Inc., REF. 15240-096) and inoculated at 1.0×10^3 cells/well in a 96-well plate (manufactured by Corning Inc., REF. 353072). After overnight culture in a carbon dioxide incubator, it was replaced with a fresh McCoy's 5a medium containing 10% FBS on the next day, and a test compound dissolved in DMSO (manufactured by Wako Pure Chemical Industries, Ltd., Code No. 043-07216) (final DMSO concentration: 0.1%) was added and left standing in a carbon dioxide incubator. After culturing for 3 days, the absorbance of each well was measured by using In Vitro Toxicology Assay Kit Sulforhodamine B based (manufactured by Sigma-Aldrich Co. LLC., Pcode 1001910706).
The rate of inhibition of cell growth at each concentration was calculated from the test compound concentration and the absorbance of sulforhodamine B, and the concentration of the test compound necessary for inhibiting 50% of cell growth (IC50 value) was calculated by using EXSUS (version 8.0.0 or version 8.0.1, manufactured by CAC Exicare Corp.).

T2 sequence (P50613 whole entry): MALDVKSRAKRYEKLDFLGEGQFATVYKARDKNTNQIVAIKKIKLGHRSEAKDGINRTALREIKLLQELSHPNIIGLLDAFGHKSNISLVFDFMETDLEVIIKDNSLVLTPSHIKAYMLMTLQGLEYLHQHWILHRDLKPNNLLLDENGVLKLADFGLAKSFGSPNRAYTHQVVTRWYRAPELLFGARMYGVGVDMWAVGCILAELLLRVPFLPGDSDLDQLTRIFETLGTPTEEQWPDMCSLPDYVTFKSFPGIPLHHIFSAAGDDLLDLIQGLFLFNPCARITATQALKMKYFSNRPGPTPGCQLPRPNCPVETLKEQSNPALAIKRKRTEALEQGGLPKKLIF
T2 sequence (P51946 whole entry partner): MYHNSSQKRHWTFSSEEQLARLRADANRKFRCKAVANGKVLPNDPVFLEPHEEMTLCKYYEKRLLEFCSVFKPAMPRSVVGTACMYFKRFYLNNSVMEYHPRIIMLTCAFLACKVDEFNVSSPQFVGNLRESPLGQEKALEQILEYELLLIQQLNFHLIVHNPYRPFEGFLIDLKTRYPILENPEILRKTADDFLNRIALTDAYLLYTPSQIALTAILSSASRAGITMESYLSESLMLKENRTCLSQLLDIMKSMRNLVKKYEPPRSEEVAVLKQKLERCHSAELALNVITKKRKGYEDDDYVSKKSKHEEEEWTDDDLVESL
T2 sequence (P51948 whole entry partner): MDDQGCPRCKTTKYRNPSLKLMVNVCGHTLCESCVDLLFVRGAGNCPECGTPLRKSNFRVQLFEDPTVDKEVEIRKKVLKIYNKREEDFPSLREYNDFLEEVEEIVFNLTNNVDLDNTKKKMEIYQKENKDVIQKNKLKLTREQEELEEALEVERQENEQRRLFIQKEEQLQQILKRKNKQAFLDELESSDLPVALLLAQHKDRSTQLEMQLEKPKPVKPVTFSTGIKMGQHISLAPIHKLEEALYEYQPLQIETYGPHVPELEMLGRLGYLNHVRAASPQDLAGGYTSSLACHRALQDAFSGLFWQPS
T3 sequence (O96013 whole entry): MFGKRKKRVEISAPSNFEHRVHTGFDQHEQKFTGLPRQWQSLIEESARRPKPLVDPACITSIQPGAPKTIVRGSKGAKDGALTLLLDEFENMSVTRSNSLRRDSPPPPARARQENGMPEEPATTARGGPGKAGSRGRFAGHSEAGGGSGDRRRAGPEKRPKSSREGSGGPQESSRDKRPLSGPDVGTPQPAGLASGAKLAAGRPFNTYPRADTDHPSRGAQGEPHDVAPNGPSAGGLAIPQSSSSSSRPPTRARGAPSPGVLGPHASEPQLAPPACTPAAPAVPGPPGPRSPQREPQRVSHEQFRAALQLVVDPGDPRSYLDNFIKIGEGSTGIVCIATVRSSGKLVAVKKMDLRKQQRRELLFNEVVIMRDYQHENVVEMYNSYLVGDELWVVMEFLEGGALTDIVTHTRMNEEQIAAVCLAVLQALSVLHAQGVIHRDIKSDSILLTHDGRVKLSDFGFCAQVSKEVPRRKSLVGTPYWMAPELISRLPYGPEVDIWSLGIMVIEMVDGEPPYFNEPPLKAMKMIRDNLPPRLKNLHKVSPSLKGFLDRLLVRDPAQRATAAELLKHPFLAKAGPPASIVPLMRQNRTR

Consider `CC(O)CNC(=O)N1Cc2c(NC(=O)C3([Si](C)(C)C)CCC3)n[nH]c2C1(C)C` (centres unmarked) [IV-442, N-(2-Hydroxypropyl)-6,6-dimethyl-3-[1-(trimethylsilyl)cyclobutanecarboxamido]-4,6-dihydropyrrolo[3,4-c]pyrazole-5(1H)-carboxamide], for which the inhibition constant Ki on CDK2 is ≥ 1000 nM; on CDK7 it was ≤ 50 nM; on PAK4, ≥ 500 nM. The IC50 in experiment [1] was ≤ 500 nM.

For `CC(C)(CO)C(NC(=O)N1Cc2c(NC(=O)C3([Si](C)(C)C)CC3)n[nH]c2C1(C)C)c1ccccc1` (centres unmarked) [III-353, N-(3-Hydroxy-2,2-dimethyl-1-phenylpropyl)-6,6-dimethyl-3-[1-(trimethylsilyl)cyclopropanecarboxamido]-4,6-dihydropyrrolo[3,4-c]pyrazole-5(1H)-carboxamide], the Ki on CDK2 is ≥ 1000 nM; on CDK7, ≤ 50 nM; on PAK4 it was ≥ 500 nM. Moreover, in experiment [1], the IC50 is ≤ 500 nM.

Turning to `CC(C)(CO)C(NC(=O)N1Cc2c(NC(=O)C3([Si](C)(C)C)CCC3)n[nH]c2C1(C)C)c1ccccc1F` (centres unmarked) [IV-890, N-[1-(2-Fluorophenyl)-3-hydroxy-2,2-dimethylpropyl]-6,6-dimethyl-3-[1-(trimethylsilyl)cyclobutanecarboxamido]-4,6-dihydropyrrolo[3,4-c]pyrazole-5(1H)-carboxamide], the Ki on CDK2 was ≥ 1000 nM. For the same compound, in experiment [1], the IC50 was ≤ 500 nM.

As to `CC(C)(O)C[C@@H](NC(=O)N1Cc2c(NC(=O)C3([Si](C)(C)C)CCC3)n[nH]c2C1(C)C)c1ccccc1F` [IV-883, (R)—N-[1-(2-Fluorophenyl)-3-hydroxy-3-methylbutyl]-6,6-dimethyl-3-[1-(trimethylsilyl)cyclobutanecarboxamido]-4,6-dihydropyrrolo[3,4-c]pyrazole-5(1H)-carboxamide], the results for the Ki at CDK2 and at PAK4 were ≥ 1000 nM and ≥ 500 nM, respectively. In addition, the IC50 in experiment [1] is ≤ 500 nM.

On to `CC1(C)c2[nH]nc(NC(=O)C3([Si](C)(C)C)CCC3)c2CN1C(=O)N[C@H](C(=O)O)c1ccccc1` [IV-403 (sodium salt), Sodium (S)-2-{6,6-dimethyl-3-[1-(trimethylsilyl)cyclobutanecarboxamido]-1,4,5,6-tetrahydropyrrolo[3,4-c]pyrazole-5-carboxamido}-2-phenylacetate], for which the Ki on CDK2 is ≥ 1000 nM; on CDK7 it was ≤ 50 nM; on PAK4 it was ≥ 500 nM.

With `CC[Si](C)(C)C(C)(C)C(=O)Nc1n[nH]c2c1CN(C(=O)N[C@H](CO)c1ccccc1)C2(C)C` [II-116, (S)-3-[2-(Ethyldimethylsilyl)-2-methylpropanamido]-N-(2-hydroxy-1-phenylethyl)-6,6-dimethyl-4,6-dihydropyrrolo[3,4-c]pyrazole-5(1H)-carboxamide], the Ki on CDK2 is ≥ 1000 nM; at CDK7 it was ≤ 50 nM; on PAK4, ≥ 500 nM. In experiment [1], the IC50 was ≤ 500 nM.

In the case of `CC1(C)c2[nH]nc(NC(=O)C3([Si](C)(C)C)CCC3)c2CN1C(=O)N[C@@H](CO)c1ccccc1` [IV-115, (R)—N-(2-Hydroxy-1-phenylethyl)-6,6-dimethyl-3-[1-(trimethylsilyl)cyclobutanecarboxamido]-4,6-dihydropyrrolo[3,4-c]pyrazole-5(1H)-carboxamide], the Ki was ≥ 1000 nM on CDK2 and ≥ 500 nM at PAK4.

For the compound `CC1(C)c2[nH]nc(NC(=O)C3([Si](C)(C)C)CCC3)c2CN1C(=O)NC(CO)c1ccccn1` (centres unmarked) [IV-534, N-[2-Hydroxy-1-(pyridin-2-yl)ethyl]-6,6-dimethyl-3-[1-(trimethylsilyl)cyclobutanecarboxamido]-4,6-dihydropyrrolo[3,4-c]pyrazole-5(1H)-carboxamide], the results for the Ki on CDK2, on CDK7 and on PAK4 were ≥ 1000 nM, ≤ 50 nM and ≥ 500 nM, respectively. The half-maximal inhibitory concentration (IC50) in experiment [1] was ≤ 500 nM.

The Ki is the equilibrium dissociation constant of an inhibitor or competing ligand from its target. Usually IC50 stands for the midpoint of a concentration-inhibition curve.
